# Patent US20090203644A1, “Compositions for treating and/or preventing diseases characterized by the presence of metal ions” (GrenPharma LLC, priority 2004, published 2009)
# Entries after “also recorded” stand apart in the source; their conditions may differ. Where a name gives a salt, the structure may show the parent alone. Read-outs that look alike come from different tables or passages of the source.
# Legend:
# [1] = biological target: T1, A-beta1-42 peptide (Homo sapiens, UniProt P05067); assay: CD: reversal of the aluminum effect on the A-beta1-42 peptide spectrum (Example 3); assay type: biochemical
# [2] = biological target: T2, NF-M17 (Homo sapiens, UniProt P07197); assay: CD titration: restoration of the CD spectrum of NF-M17 exposed to aluminum; assay type: biochemical
# T2 construct: a seventeen amino acid region of the human neurofilament mid-sized subunit protein, NF-M17; host or cells: chemical synthesis
# [3] = system: Caco-2 cells; conditions: Caco-2
# [4] = biological target: peptide 1 (A-beta1-42 peptide) (Homo sapiens, UniProt P05067); assay type: biochemical
# [5] = system: Caco-2 cells
# [6] = system: A-beta antigen; design: species or system human
# [7] = biological target: A-beta peptide fragment (Homo sapiens, UniProt P05067); assay: CD helix-coil reversal and pretreatment experiments (Example 11); assay type: biochemical
# [8] = system: MDCK cells
# [9] = system: A-beta peptide; design: species or system human
# [10] = biological target: T1, A-beta1-42 peptide; assay type: biochemical
# T1 sequence (P05067 672-713): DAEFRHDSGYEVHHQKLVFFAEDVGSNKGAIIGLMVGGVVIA
# Sequence of peptide 1 (A-beta1-42 peptide) (P05067 672-713): as above
# Sequence of A-beta peptide fragment (P05067 672-713): as above
compound,measurement,setting,value
"N#CCCC[Si](Cl)(Cl)Cl [CPTCS, 3-cyanopropyltrichlorosilane]",restoration of the original CD spectrum of the peptide after exposure to aluminum,[1],able to restore the CD spectrum
same,reversal of the effects of aluminum on the CD spectrum of the peptide,[1],Moderate reversal; also recorded: almost full reversal
same,Restore original spectra?,[2],Yes
same,equivalents at which the CD spectrum of NF-M17/aluminum is restored to (similar to) its original shape,[2],around 32 equivalents
trihydroxysilylmethyl phosphonate,crossing of the epithelial barrier in the Caco-2 model,[3],permeated less efficiently
sodium metasilicate nonahydrate [reference compound],equivalents at which some return / beginning of return of the CD curve to its original shape is seen,[2],about 32 equivalents
"CN(C)[Si](N(C)C)(N(C)C)N(C)C [tetrakis, tetrakis(dimethylamino)silane]",restoration of the original CD spectrum of the peptide after exposure to aluminum,[1],at least partially restored
"C[Si](O)(O)CCCC#N [compound 3f, (dihydroxy)methyl(3-cyanopropyl)silane]",recovery of the CD spectrum on titration of iron-complexed peptide 1,[4],"dosage effect is evident, but non-linear"
same,"stability, solubility and effectiveness in reversing and/or preventing the effect of metal ion on helix formation",[4],"efficient combination of stability, solubility, and effectiveness"
same,titration point showing the greatest degree of recovery,[4],0.25 eq.
Trihydroxysilylmethyl phosphonate,permeation across Caco-2 cells compared with mannitol,[3],slower permeation
"NCCC[Si](O)(O)O [APST, 3-aminopropylsilantriol]",Restore original spectra?,[2],Yes
same,chelation of aluminum compared to sodium orthosilicate,[2],improved chelation of aluminum
"C1CC[Si]2(CCCCO2)OC1 [SDSU, 1,7-dioxa-6-sila-spiro[5.5]undecane]",transport across the Caco-2 cells,[5],significant amount of transport
same,restoration of the original CD spectrum of the peptide after exposure to aluminum,[1],at least partially restored
"Cl [HCl, hydrochloric acid, reference compound]",Total Extracted (fmol),[6],no detectable antigen
same,reversing the metal-induced helix-coil transition,"[4]; acid, product of hydrolysis of chlorosilanes",itself effective for reversing the helix-coil transition
same,reversal of / protection from metal-induced loss of helix in TFE solutions (CD),[7]; polyvalent metal ions as perchlorate salts,can reverse the loss of helix
"CC(C)[Si](Cl)(Cl)C(C)C [DCDIPS, dichlorodiisopropylsilane]",restoration of the original CD spectrum of the peptide after exposure to aluminum,[1],at least partially restored
same,Restore original spectra?,[2],Yes
same,equivalents at which the CD spectrum of NF-M17/aluminum is restored to (similar to) its original shape,[2],around 32 equivalents
dichlorosilacyclobutane [DCSCB],transport across the Caco-2 cells,[5],significant amount of transport
same,restoration of the original CD spectrum of the peptide after exposure to aluminum,[1],at least partially restored
"CCCCCC[Si](C)(Cl)Cl [HMDS, hexylmethyldichlorosilane]",restoration of the original CD spectrum of the peptide after exposure to aluminum,[1],at least partially restored
same,Restore original spectra?,[2],Yes
same,equivalents at which the CD spectrum of NF-M17/aluminum is restored to (similar to) its original shape,[2],around 32 equivalents
"CCCCCCCC[Si](Cl)(Cl)Cl [OTCS, n-octyltrichlorosilane]",Restore original spectra?,[2],did not restore; also recorded: (gelation of OTCS)
"CC[Si](Cl)(Cl)CC [DCDES, dichlorodiethylsilane]",restoration of the original CD spectrum of the peptide after exposure to aluminum,[1],at least partially restored
same,Restore original spectra?,[2],Yes
same,equivalents at which the CD spectrum of NF-M17/aluminum is restored to (similar to) its original shape,[2],around 32 equivalents
"CC(=O)O[Si](OC(C)=O)(OC(C)=O)OC(C)=O [TAS, tetraacetooxysilane]",restoration of the original CD spectrum of the peptide after exposure to aluminum,[1]; 8 to 12 equivalents of aluminum,at least partially restored
"CC(C#N)C[Si](C)(Cl)Cl (centres unmarked) [CPMS, 2-cyanopropylmethyldichlorosilane]",permeation across Caco-2 cells compared with mannitol,[3],approximately three times more efficiently
same,"Permeation Coefficient (cm/sec) Mean ± SD, where applicable",[3]; human,6.1 ± 1.7 × 10^−6 cm/sec
same,"Total Permeation Coefficient (cm/sec) Mean ± SD, where applicable, Caco-2",[3]; human,6.1 ± 1.7 × 10^−6 cm/sec
same,"Total Permeation Coefficient (cm/sec) Mean ± SD, where applicable, MDCK",[8]; dog,1.2e-06 cm/s
same,recovery of helicity in Al-denatured peptide / reversal of aluminum-induced denaturation (CD),[7],appeared to reverse aluminum-induced denaturation
same,total extracted,[9],5.3 fmol
"CC[Si](O)(CC)CC [TES, triethylsilanol]",restoration of the original CD spectrum of the peptide after exposure to aluminum,[1],at least partially restored
same,Restore original spectra?,[2],did not restore and No
(dichloro)methylsilylbutyronitrile [DCMSBN],"transport across Caco-2 cells, FIG. 29B compounds compared with FIG. 29A compounds",[5],more transport
same,transport across the Caco-2 cells,[5],significant amount of transport
same,restoration of the original CD spectrum of the peptide after exposure to aluminum,[1],at least partially restored
same,Restore original spectra?,[2],Yes
same,equivalents at which the CD spectrum of NF-M17/aluminum is restored to (similar to) its original shape,[2],around 32 equivalents
"C[Si](Cl)(Cl)CC[Si](C)(Cl)Cl [1,2-(methyldichlorosilyl)ethane]",permeation across Caco-2 cells compared with mannitol,[3],at least four times greater
[Fe+2] [iron (II)],effect on the A-beta1-42 CD spectrum (disruption of the alpha helix),[10],minor or no effects
"CCC(C#N)C[Si](C)(Cl)Cl (centres unmarked) [CBMS, 2-cyanobutylmethyldichlorosilane]","Permeation Coefficient (cm/sec) Mean ± SD, where applicable",[3]; human,6.5e-06 cm/s
same,"Total Permeation Coefficient (cm/sec) Mean ± SD, where applicable, Caco-2",[3]; human,6.5e-06 cm/s
same,"Total Permeation Coefficient (cm/sec) Mean ± SD, where applicable, MDCK",[8]; dog,1.5e-06 cm/s
same,recovery of helicity in Al-denatured peptide / reversal of aluminum-induced denaturation (CD),[7],appeared to reverse aluminum-induced denaturation
same,total extracted,[9],3.6 fmol
triethoxysilylpropionitrile [TESP],restoration of the original CD spectrum of the peptide after exposure to aluminum,[1],at least partially restored
[Zn] [Zinc],effect on the A-beta1-42 CD spectrum (disruption of the alpha helix),[10],minor or no effects
triethoxysilylbutyronitrile [TESB],Cell Permeation Coefficient (cm/sec) Caco-2,[3],3.7e-05 cm/s
same,"Permeation Coefficient (cm/sec) Mean ± SD, where applicable",[3],3e-05 cm/s
same,"Total Permeation Coefficient (cm/sec) Mean ± SD, where applicable, Caco-2",[3],2.8 ± 1.8 × 10^−5 cm/sec
same,"cell permeation coefficient compared with mannitol, Caco-2",[3],at least ten times greater
same,crossing of the epithelial barrier in the Caco-2 model,[3],cross the epithelial barrier relatively efficiently
same,permeation across Caco-2 cells compared with mannitol,[3],at least ten times greater
same,"transport across Caco-2 cells, FIG. 29B compounds compared with FIG. 29A compounds",[5],more transport
same,transport across the Caco-2 cells,[5],significant amount of transport
same,Cell Permeation Coefficient (cm/sec) MDCK,[8],2.7e-05 cm/s
same,"Total Permeation Coefficient (cm/sec) Mean ± SD, where applicable, MDCK",[8],2.2 ± 1.4 × 10^−5 cm/sec
same,"cell permeation coefficient compared with mannitol, MDCK",[8],at least ten times greater
same,crossing of the epithelial barrier in the MDCK model,[8],cross the epithelial barrier relatively efficiently
same,permeation across MDCK cells compared with mannitol,[8],at least ten times greater
same,restoration of the original CD spectrum of the peptide after exposure to aluminum,[1],at least partially restored
same,recovery of helicity in Al-denatured peptide / reversal of aluminum-induced denaturation (CD),[7],appeared to reverse aluminum-induced denaturation
triethoxysilylbutyronitrile,crossing of the epithelial barrier in the Caco-2 model,[3],crossed the epithelial barrier efficiently
same,permeation across Caco-2 cells compared with mannitol,[3],at least four times greater
same,restoration of the original CD spectrum of the peptide after exposure to aluminum,[1],reverses aluminum-induced denaturation
"CC(C)(C)[Si](C)(C)O [TBDMS, tert-butyldimethylsilanol]",Restore original spectra?,[2],did not restore and No
"CC[Si](O)(CC)Cc1ccccc1 [BDS, benzyldiethylsilanol]",Restore original spectra?,[2],did not restore and No
"O[Si](O)(c1ccccc1)c1ccccc1 [DPSD, diphenylsilandiol]",Restore original spectra?,"[2]; CD spectrum of NF-M17 with 8 equivalents of aluminum, titration up to 32 equivalents",did not restore; also recorded: (DMSO interfered with spectra)
sodium orthosilicate [reference compound],restoration of the original CD spectrum of the peptide after exposure to aluminum,[1],at least partially restored
same,equivalents at which some return / beginning of return of the CD curve to its original shape is seen,[2],4 equivalents
same,equivalents at which the CD spectrum of NF-M17/aluminum is restored to (similar to) its original shape,[2],around 16 equivalents
"C[Si](Cl)(Cl)c1ccccc1 [MPDS, methylphenyldichlorosilane]",Restore original spectra?,[2],Yes
same,equivalents at which the CD spectrum of NF-M17/aluminum is restored to (similar to) its original shape,[2],around 32 equivalents
trihydroxysilylmethyl phosphonate [TSMP],Cell Permeation Coefficient (cm/sec) Caco-2,[3],2e-07 cm/s
same,"Permeation Coefficient (cm/sec) Mean ± SD, where applicable",[3],1.9 ± 1.5 × 10^−7 cm/sec
same,"Total Permeation Coefficient (cm/sec) Mean ± SD, where applicable, Caco-2",[3],1.9 ± 1.5 × 10^−7 cm/sec
same,permeation across Caco-2 cells compared with mannitol,[3],slower permeation
same,Cell Permeation Coefficient (cm/sec) MDCK,[8],5.4e-07 cm/s
same,"Total Permeation Coefficient (cm/sec) Mean ± SD, where applicable, MDCK",[8],5.2 ± 7.0 × 10^−7 cm/sec
same,permeation across MDCK cells compared with mannitol,[8],slower permeation
